The results in this text go back to ChEMBL document CHEMBL5465560, “Selectivity Literature for EUbOPEN Chemogenomic Library” (2024).

Assay [1] has as its target Sodium-dependent serotonin transporter (Homo sapiens, UniProt P31645). Nature of the assay: Selectivity interaction (Panel of kinases, GPCRs, ion channels and transporters (enzymatic assay)) EUB0000266bCl SLC6A4.
Assay [2] addresses Platelet-derived growth factor receptor alpha (Homo sapiens, UniProt P16234). Kind of assay: Selectivity interaction (Upstate Kinase Profiler service (Millipore)) EUB0000056c PDGFRA. As to conditions: at 1 µM.
The target in assay [3] is Serine/threonine-protein kinase Nek4 (Homo sapiens) (UniProt P51957). Kind of assay: Selectivity interaction (ProQinase) EUB0000171b NEK4.
Chain of Serine/threonine-protein kinase Nek4 (Homo sapiens) (P51957 whole entry, looked up): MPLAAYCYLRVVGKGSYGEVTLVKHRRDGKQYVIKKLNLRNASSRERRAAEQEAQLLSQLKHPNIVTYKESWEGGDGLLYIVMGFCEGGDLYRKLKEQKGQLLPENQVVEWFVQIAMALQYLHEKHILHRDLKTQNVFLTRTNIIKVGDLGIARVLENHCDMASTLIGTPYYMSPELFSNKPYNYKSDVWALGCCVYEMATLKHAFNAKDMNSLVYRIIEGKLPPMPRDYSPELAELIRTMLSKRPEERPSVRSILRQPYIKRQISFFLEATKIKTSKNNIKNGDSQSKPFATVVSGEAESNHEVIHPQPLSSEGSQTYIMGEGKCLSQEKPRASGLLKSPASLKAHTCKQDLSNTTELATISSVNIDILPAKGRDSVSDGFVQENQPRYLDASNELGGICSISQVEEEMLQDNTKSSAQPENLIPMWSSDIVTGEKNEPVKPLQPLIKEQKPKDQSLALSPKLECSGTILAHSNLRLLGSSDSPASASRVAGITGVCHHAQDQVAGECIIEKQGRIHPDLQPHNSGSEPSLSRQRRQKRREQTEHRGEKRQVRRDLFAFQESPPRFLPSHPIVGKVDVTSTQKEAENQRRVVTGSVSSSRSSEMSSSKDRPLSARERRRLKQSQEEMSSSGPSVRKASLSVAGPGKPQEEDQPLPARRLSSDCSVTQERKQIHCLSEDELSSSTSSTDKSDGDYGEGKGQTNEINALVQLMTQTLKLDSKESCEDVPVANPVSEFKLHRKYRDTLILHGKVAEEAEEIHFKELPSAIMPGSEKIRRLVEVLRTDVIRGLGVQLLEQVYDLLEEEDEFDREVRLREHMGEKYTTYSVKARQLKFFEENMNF
Assay [4] deals with Mitotic checkpoint serine/threonine-protein kinase BUB1 (Homo sapiens, UniProt O43683). Nature of the assay: Selectivity interaction (Ambit KINOMEscan and KiNATiv profiling in Jurkat cells) EUB0000090b BUB1. The settings on record: at 1 µM. The assay is classed as cell-based.
Assay [5] addresses T1, Myotonin-protein kinase (Homo sapiens) (UniProt Q09013).
T1 sequence (whole entry): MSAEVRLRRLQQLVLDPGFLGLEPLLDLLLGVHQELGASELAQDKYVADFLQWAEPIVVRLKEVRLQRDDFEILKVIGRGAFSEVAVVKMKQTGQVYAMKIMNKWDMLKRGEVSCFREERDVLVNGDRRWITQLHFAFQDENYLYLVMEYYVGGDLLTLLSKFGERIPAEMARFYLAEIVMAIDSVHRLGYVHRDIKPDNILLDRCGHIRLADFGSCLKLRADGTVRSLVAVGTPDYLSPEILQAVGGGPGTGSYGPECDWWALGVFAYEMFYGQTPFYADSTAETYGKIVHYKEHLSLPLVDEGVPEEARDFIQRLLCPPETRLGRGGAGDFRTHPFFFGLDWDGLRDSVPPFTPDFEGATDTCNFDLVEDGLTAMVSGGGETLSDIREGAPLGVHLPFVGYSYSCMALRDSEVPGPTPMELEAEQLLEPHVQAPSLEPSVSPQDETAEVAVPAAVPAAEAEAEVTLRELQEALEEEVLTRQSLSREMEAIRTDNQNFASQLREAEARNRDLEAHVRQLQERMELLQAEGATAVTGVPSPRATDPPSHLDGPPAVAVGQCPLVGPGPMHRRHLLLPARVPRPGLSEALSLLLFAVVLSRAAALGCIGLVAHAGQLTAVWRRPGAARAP
Kind of assay: Selectivity interaction (Ambit KINOMEscan and KiNATiv profiling in Jurkat cells) EUB0000090b DMPK. The assay is classed as cell-based. As to conditions: at 1 µM.

Assay [6] addresses Insulin-like growth factor 1 receptor (Homo sapiens, UniProt P08069). Nature of the assay: Selectivity interaction (Ambit KINOMEscan and KiNATiv profiling in Jurkat cells) EUB0000090b IGF1R. It counts as cell-based. As to conditions: at 1 µM.
For assay [7], the target named is Serine/threonine-protein kinase MARK2 (Homo sapiens) (UniProt Q7KZI7). Nature of the assay: Selectivity interaction (Millipore kinase profiler) EUB0000124b MARK2. As to conditions: at 10 µM.
Assay [8] concerns the target Ribosomal protein S6 kinase alpha-2 (Homo sapiens) (UniProt Q15349). Nature of the assay: Selectivity interaction (KinomeScan (DiscoverX)) EUB0001049a RPS6KA2. The settings on record: at 1 µM.
The target of assay [9] is Ribosomal protein S6 kinase alpha-6 (Homo sapiens, UniProt Q9UK32). Nature of the assay: Selectivity interaction (KinomeScan (DiscoverX)) EUB0000655a RPS6KA6. The settings on record: at 10 µM.
Chain of Ribosomal protein S6 kinase alpha-6 (Q9UK32 whole entry): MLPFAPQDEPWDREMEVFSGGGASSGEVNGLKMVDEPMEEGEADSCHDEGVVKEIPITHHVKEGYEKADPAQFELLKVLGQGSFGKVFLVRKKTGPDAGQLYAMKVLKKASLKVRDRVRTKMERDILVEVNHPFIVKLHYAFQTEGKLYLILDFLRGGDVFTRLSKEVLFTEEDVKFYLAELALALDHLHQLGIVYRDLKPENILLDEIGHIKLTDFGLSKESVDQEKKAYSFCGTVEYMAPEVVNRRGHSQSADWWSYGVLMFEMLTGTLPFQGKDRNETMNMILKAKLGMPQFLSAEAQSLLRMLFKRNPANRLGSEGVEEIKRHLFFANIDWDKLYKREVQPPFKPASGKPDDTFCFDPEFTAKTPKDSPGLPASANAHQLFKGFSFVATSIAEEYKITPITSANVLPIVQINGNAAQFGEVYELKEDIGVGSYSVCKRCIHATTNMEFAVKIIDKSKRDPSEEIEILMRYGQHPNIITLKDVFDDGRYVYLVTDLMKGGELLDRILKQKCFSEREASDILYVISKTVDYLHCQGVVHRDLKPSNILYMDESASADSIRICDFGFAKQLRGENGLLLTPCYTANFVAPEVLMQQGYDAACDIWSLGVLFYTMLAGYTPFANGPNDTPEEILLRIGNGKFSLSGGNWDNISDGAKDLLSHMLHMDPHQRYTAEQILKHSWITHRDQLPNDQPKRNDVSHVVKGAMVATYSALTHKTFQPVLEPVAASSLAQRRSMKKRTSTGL
The target in assay [10] is Ribosomal protein S6 kinase alpha-3 (Homo sapiens, UniProt P51812). Nature of the assay: Selectivity interaction (KinomeScan (DiscoverX)) EUB0000695a RPS6KA3. The settings on record: at 100 nM.
Assay [11] concerns the target T2, Serine/threonine-protein kinase Nek5 (Homo sapiens) (UniProt Q6P3R8).
T2 sequence (whole entry): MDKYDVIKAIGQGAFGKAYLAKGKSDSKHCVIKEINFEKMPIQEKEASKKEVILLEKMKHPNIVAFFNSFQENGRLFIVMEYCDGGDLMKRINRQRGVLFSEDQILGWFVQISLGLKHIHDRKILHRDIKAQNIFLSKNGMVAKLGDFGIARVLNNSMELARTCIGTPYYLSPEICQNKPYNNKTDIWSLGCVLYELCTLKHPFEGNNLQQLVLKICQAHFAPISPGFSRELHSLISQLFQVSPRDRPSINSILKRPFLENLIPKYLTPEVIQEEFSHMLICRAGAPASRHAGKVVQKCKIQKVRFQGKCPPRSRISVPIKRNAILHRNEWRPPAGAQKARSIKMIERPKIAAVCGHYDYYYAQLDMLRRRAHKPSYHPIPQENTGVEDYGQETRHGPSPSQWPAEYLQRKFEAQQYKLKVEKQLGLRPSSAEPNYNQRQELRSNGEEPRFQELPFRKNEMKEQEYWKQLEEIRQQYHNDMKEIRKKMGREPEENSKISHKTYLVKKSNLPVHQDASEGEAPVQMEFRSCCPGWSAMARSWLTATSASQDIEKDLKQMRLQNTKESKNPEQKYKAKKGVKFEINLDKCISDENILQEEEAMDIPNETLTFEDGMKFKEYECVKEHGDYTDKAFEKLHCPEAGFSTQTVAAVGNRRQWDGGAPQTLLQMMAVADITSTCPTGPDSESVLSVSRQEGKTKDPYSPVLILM
Nature of the assay: Selectivity interaction (KinomeScan (DiscoverX)) EUB0000045b NEK5.

Assay [12] addresses Tyrosine-protein kinase ABL1 (Homo sapiens, UniProt P00519). Kind of assay: Selectivity interaction (KinomeScan (DiscoverX)) EUB0001868a ABL1. As to conditions: at 1 µM.
Assay [13] concerns the target Serine/threonine-protein kinase 32B (Homo sapiens) (UniProt Q9NY57). Nature of the assay: Selectivity interaction (LanthaScreen Eu Kinase Binding Assay) EUB0001632a STK32B. As to conditions: at 10 µM. (In general: Time-resolved FRET reads energy transfer from a long-lived donor to a nearby acceptor.)
In assay [14] the target is Histone-lysine N-methyltransferase SETDB1 (Homo sapiens) (UniProt Q15047). As to conditions: at 1 µM.
Assay [15] concerns the target Serine/threonine-protein kinase PLK1 (Homo sapiens, UniProt P53350). Nature of the assay: Selectivity interaction (KinomeScan (DiscoverX)) EUB0000607a PLK1. As to conditions: at 10 µM.
Assay [16] has as its target Calcium/calmodulin-dependent protein kinase type II subunit gamma (Homo sapiens) (UniProt Q13555). Kind of assay: Selectivity interaction (ActivX KiNativ screen (ex vivo kinase selectivity in human PBMCs)) EUB0001619a CAMK2G. The assay is classed as cell-based. As to conditions: PBMC, at 1 µM.
Assay [17] addresses Cyclin-dependent kinase-like 3 (Homo sapiens) (UniProt Q8IVW4). Nature of the assay: Selectivity interaction (KinomeScan (DiscoverX)) EUB0000618a CDKL3. The settings on record: at 10 µM.

Chain of Cyclin-dependent kinase-like 3 (Homo sapiens) (Q8IVW4 whole entry, looked up): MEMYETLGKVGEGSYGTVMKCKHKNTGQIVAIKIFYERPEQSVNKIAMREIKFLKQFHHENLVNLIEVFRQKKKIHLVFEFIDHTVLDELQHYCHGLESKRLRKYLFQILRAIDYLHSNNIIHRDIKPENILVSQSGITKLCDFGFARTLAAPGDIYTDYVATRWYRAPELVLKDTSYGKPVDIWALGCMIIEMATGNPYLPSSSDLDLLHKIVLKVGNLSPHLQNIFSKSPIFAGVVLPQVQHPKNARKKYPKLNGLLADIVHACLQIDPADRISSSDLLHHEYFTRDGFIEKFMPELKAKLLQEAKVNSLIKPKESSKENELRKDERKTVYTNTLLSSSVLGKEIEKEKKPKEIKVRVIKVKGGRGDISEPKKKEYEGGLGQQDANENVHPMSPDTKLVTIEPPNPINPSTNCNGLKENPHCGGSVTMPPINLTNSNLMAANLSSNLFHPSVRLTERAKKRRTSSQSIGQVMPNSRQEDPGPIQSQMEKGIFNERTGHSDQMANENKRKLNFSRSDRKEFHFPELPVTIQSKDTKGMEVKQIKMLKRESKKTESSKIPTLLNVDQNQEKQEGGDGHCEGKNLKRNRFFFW
Chain of Serine/threonine-protein kinase PLK1 (P53350 whole entry): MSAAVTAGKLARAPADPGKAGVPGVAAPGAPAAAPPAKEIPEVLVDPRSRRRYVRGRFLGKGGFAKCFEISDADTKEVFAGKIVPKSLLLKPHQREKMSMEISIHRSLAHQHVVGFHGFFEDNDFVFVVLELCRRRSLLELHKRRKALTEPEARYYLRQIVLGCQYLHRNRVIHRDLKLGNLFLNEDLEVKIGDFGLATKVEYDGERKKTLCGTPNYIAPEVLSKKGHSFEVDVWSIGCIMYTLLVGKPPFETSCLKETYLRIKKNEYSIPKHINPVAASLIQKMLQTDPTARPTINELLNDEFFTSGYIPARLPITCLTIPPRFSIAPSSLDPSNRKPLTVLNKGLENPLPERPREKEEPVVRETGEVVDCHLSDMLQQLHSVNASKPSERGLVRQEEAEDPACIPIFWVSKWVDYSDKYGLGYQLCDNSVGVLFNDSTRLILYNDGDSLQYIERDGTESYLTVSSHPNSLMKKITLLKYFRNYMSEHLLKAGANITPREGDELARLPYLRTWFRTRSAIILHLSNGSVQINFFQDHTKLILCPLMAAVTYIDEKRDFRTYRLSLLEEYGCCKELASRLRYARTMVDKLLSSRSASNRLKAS
Chain of Insulin-like growth factor 1 receptor (P08069 31-736 limits assumed): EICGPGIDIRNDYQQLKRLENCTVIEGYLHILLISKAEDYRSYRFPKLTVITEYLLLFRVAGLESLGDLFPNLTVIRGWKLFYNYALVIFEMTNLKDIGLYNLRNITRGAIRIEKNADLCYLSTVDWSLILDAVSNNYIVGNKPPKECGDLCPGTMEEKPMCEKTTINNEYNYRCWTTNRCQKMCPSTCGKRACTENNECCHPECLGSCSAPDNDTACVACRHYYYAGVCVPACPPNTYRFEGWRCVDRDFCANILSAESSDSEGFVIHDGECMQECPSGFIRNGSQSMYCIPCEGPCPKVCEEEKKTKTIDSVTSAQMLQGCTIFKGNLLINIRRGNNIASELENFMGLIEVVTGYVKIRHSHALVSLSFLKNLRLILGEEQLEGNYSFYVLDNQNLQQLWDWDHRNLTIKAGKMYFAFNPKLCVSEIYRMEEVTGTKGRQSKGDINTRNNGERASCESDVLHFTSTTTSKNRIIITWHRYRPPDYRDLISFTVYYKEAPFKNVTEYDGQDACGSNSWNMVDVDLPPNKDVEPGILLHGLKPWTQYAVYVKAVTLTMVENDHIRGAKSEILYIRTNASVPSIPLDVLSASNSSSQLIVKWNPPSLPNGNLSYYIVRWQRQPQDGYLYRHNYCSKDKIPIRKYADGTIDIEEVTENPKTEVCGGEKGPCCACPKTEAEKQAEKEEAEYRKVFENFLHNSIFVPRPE
Chain of Insulin-like growth factor 1 receptor (P08069 741-1367 limits assumed): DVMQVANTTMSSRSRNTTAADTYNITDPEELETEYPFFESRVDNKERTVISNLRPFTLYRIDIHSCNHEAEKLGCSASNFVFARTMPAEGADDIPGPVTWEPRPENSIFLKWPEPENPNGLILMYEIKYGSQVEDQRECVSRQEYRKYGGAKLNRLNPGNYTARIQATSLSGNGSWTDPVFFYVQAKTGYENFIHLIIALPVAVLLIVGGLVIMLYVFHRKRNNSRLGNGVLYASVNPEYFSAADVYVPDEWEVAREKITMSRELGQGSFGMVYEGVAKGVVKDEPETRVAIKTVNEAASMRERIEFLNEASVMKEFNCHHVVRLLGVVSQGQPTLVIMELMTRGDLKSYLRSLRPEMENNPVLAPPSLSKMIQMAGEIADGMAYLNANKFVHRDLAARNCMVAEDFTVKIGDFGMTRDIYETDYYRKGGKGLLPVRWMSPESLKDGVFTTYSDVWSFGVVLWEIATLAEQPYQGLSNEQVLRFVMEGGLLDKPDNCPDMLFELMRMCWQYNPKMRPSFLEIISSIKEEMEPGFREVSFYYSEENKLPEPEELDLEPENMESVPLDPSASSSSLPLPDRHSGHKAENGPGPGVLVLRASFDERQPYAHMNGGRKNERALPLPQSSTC
Chain of Sodium-dependent serotonin transporter (P31645 whole entry, looked up): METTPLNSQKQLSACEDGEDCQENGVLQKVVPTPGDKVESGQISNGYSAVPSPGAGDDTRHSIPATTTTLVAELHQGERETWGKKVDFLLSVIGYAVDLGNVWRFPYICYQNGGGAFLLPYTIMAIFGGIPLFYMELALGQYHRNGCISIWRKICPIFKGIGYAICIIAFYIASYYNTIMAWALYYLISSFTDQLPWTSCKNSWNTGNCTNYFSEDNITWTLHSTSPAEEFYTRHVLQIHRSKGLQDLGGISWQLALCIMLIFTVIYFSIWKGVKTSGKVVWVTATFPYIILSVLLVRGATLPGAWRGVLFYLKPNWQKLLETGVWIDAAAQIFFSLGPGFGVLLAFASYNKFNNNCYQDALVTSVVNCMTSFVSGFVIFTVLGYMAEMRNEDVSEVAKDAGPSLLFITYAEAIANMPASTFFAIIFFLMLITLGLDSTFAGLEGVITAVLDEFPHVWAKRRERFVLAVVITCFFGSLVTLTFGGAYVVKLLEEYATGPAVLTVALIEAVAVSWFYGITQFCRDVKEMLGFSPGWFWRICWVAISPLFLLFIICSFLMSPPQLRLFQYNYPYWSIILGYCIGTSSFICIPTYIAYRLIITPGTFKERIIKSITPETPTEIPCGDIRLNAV

Compound `CCn1c(-c2nc3cc(C(=O)N4CCCC(N)C4)ccc3n2C)cc2ccccc21` (centres undefined) had a pXC50 in assay [1] of 4.7 M.

As to `Cc1ccc(-c2ccc3c(ccc4sc5c(c43)NC[C@@H](C)NC5=O)n2)cn1`, the % of inhibition in assay [2] is -24%.

In the case of `C=CC(=O)Nc1cccc(C(=O)Nc2ccc(Nc3cc(-c4[nH]c(SC)nc4C)ccn3)cc2)c1`, the % of control came out at 79% in assay [3] (at 1 µM) and 51% in assay [3] (at 5 µM).

In the case of `CN(C)C/C=C/C(=O)Nc1ccc(C(=O)N2CCCC(Nc3ncc(Cl)c(-c4c[nH]c5ccccc45)n3)C2)cc1` (centres undefined), the % of control in assay [4] turned out to be 96%; in assay [5], 91%; in [6], 91%.

In turn, `CC(=O)Nc1cccc(-n2c(=O)n(C3CC3)c(=O)c3c(Nc4ccc(I)cc4F)n(C)c(=O)c(C)c32)c1` yielded a % of control in assay [7] of 116%.

In assay [8], `COc1cc(Nc2nc(C)cc(-c3cnn4nc(OC)ccc34)n2)cc(C(F)(F)F)c1` registered a % of control of 90%.

`CN(C)CCOc1ccc(-c2nc(-c3ccncc3)c(-c3ccc4c(c3)CC/C4=N\O)[nH]2)cc1` returned a % of control in [9] of 82%.

Take `Cc1cc(F)c(C(=O)Nc2cccc(-c3nncn3C(C)C)n2)cc1-n1cnc(C2CC2)c1`: the % of control in assay [10] worked out at 46%.

With `C=CC(=O)Nc1cc(-n2c(=O)ccc3cnc4ccc(-c5ccc(NS(C)(=O)=O)cc5)cc4c32)ccc1C`, the values for the % of control in assay [11] (at 1 µM) and in [11] (at 10 µM) were 100% and 84%, respectively.

Consider `Cc1cc(-c2ccnc(Nc3cnn(C)c3)n2)ccc1CNC(=O)N1CC(OC(C)C)C1`, for which, in assay [12], the % of control worked out at 21%.

Consider `Cn1cc(-n2cnc3c(NCc4nc5cc(Cl)c(Cl)cc5[nH]4)nc(N4CCOCC4)nc32)cn1`, for which the % of inhibition in [13] is -8.62%.

With `CNCCN1CCC(c2cc(CN(C)C(=O)c3cccc(Oc4ccccc4)c3)ccn2)CC1`, the % activity in assay [14] was > 90%.

In assay [15], `CNC(=O)Nc1ccc(-c2nc(N3CC4CCC(C3)O4)c3cnn(C4CCC5(CC4)OCCO5)c3n2)cc1` showed a % of control of 77%.

Take `N#Cc1cccc(-c2c[nH]c3ncnc(N4CCOCC4)c23)c1`: in [16], the % of inhibition is -12%.

As to `O[C@H]1CC[C@H](Nc2ncc3nc(Nc4c(F)cc(F)cc4F)n([C@H]4CCOC4)c3n2)CC1`, the % of control in assay [17] is 86%.
